Our source for the IC50 values is PMC12133982, “Predominant T-cell epitopes of SARS-CoV-2 restricted by multiple prevalent HLA-B and HLA-C allotypes in Northeast Asia” (Frontiers in Immunology, 2025).

Each structure is given as a SMILES string. Peptide text beside a SMILES is read from it.

One assay has as its target HLA-C0702 (Homo sapiens, UniProt P10321). Kind of assay: Competitive peptide binding assay, CIR-C0702.
Another assay has as its target HLA-C1202 (Homo sapiens, UniProt P10321, A176E/A330V/C350S/D114A/D33Y/L171W/L180W/L218V/M285V/M309V/M331V/P208H/Q277E/Q291P/S123Y/S297R/S48A/T329A/T363A/V319A/V328M). Briefly: Competitive peptide binding assay, CIR-C1202. Conditions: HMy2.CIR-C1202 cells, reference Cy5-[…], class from inhibition at 5 and 15 μM, flow cytometry MFI; read-out: Binding affinity with HLA-C1202. The method, then: (§1) Then, competitive peptide binding assays were performed.

In the next assay the target is HLA-C0302 (Homo sapiens, UniProt P10321, A176E/A330V/A97T/C25G/C350S/D114A/D33Y/E197K/L127V/L171W/L218V/M285V/M309V/M331V/P208H/Q277E/Q291P/R243W/R45H/S123Y/S297R/S48A/T118I/T187L/T329A/T363A/V319A). Briefly: Competitive peptide binding assay, CIR-C0302. The following applies: HMy2.CIR-C0302 cells, reference Cy5-[…], class from inhibition at 5 and 15 μM, flow cytometry MFI; read-out: Binding affinity with HLA-C0302. As to the method:
as §1
Background: In flow cytometry, cells or beads pass a laser one at a time.

Another assay concerns the target HLA-C0102 (Homo sapiens, UniProt P10321, A176E/A330V/A35S/A97T/C350S/D114A/D33F/L171W/L180R/L218V/M285V/M309V/M331V/P208H/Q277E/Q291P/R121W/R243W/R30K/S123C/S140Y/S297R/T329A/T363A/V272M/V319A). Kind of assay: Competitive peptide binding assay, CIR-C0102. The following applies: HMy2.CIR-C0102 cells, reference Cy5-[…], class from inhibition at 5 and 15 μM, flow cytometry MFI; read-out: Binding affinity with HLA-C0102. The method, then: as §1

In a further assay the target is HLA-C0304 (Homo sapiens, UniProt P10321, A176E/A330V/A97T/C25G/C350S/D114A/D33Y/E197K/L119I/L127V/L171W/L218V/M285V/M309V/M331V/P208H/Q277E/Q291P/R243W/R45H/S123Y/S140Y/S297R/S48A/T118I/T187L/T329A/T363A/V319A). Briefly: Competitive peptide binding assay, CIR-C0304. Conditions: HMy2.CIR-C0304 cells, reference Cy5-[…], class from inhibition at 5 and 15 μM, flow cytometry MFI; read-out: Binding affinity with HLA-C0304. The method, then: as §1

A further assay deals with HLA-C0701 (Homo sapiens, UniProt P10321, K90N/S123Y). Briefly: Competitive peptide binding assay, CIR-C0701. Conditions: HMy2.CIR-C0701 cells, reference Cy5-[…], class from inhibition at 5 and 15 μM, flow cytometry MFI; read-out: Binding affinity with HLA-C 0701. As to the method:
as §1

The target of a further assay is HLA-C0801 (Homo sapiens, UniProt P10321, A176T/A330V/A97T/C350S/D114A/D138N/D33Y/E201K/E299G/L171W/L218V/M285V/M309V/M331V/P208H/Q277E/Q291P/R59Q/S123Y/S140F/S297R/S48A/T329A/T363A/V319A/V328M). Briefly: Competitive peptide binding assay, CIR-C0801. Conditions: HMy2.CIR-C0801 cells, reference Cy5-[…], class from inhibition at 5 and 15 μM, flow cytometry MFI; read-out: Binding affinity with HLA-C0801. The method, then:
as §1

The target in another assay is HLA-C0602 (Homo sapiens, UniProt P10321, A176E/A330V/C350S/L171W/L180W/L218V/M285V/M309V/M331V/N104K/P208H/Q277E/Q291P/R121W/S101N/S123Y/S297R/T329A/T363A/V319A/V328M). Kind of assay: Competitive peptide binding assay, CIR-C0602.
A further assay deals with HLA-C1502 (Homo sapiens, UniProt P10321, A176E/A330V/A97T/C350S/D114A/D33Y/K90N/L119I/L171W/L218V/M285V/M309V/M331V/N104K/P208H/Q277E/Q291P/R45H/S101N/S123Y/S140L/S297R/S48A/T118I/T329A/T363A/V319A/V328M/Y137H). Kind of assay: Competitive peptide binding assay, CIR-C1502. Conditions: HMy2.CIR-C1502 cells, reference Cy5-[…], class from inhibition at 5 and 15 μM, flow cytometry MFI; read-out: Binding affinity with HLA-C1502. The method, then:
as §1

In another assay the target is HLA-C0303 (Homo sapiens, UniProt P10321, A176E/A330V/A97T/C25G/C350S/D114A/D33Y/E197K/G115R/L119I/L127V/L171W/L218V/M285V/M309V/M331V/P208H/Q277E/Q291P/R243W/R45H/S123Y/S140Y/S297R/S48A/T118I/T187L/T329A/T363A/V319A). Briefly: Competitive peptide binding assay, CIR-C0303. Conditions: HMy2.CIR-C0303 cells, reference Cy5-[…], class from inhibition at 5 and 15 μM, flow cytometry MFI; read-out: Binding affinity with HLA-C0303. The method, then:
as §1

The target of a further assay is HLA-C0401 (Homo sapiens, UniProt P10321, A176E/A330V/A35S/A73E/C25G/C350S/D138N/D33S/E299K/L171W/L180R/L218V/M285V/M309V/M331V/N104K/P208H/Q277E/Q291P/R243W/R38W/S101N/S123F/S140F/S297R/S48A/T329A/T363A/V319A/V327M). Kind of assay: Competitive peptide binding assay, CIR-C0401. The following applies: HMy2.CIR-C0401 cells, reference Cy5-[…], class from inhibition at 5 and 15 μM, flow cytometry MFI; read-out: Binding affinity with HLA-C0401. As to the method:
as §1

The target of the next assay is HLA-B5201 (Homo sapiens, UniProt P01889, A329T/A93T/A95T/C349S/D138N/D201E/D98Y/E187L/E204Q/E69T/G107R/I218V/K202T/L105A/L119W/N104I/N87E/Q94N/R106L/R155S/R180L/S101N/S121T/S35A/S48A/V306I/V36M/Y195H/Y91S). Kind of assay: Competitive peptide binding assay, CIR-B5201. Conditions: HMy2.CIR-B5201 cells, reference Cy5-[…], class from inhibition at 5 and 15 μM, flow cytometry MFI; read-out: Binding affinity with HLA-B5201. The method, then:
as §1

A further assay deals with HLA-B5101 (Homo sapiens, UniProt P01889, A329T/A93T/A95T/C349S/D138N/D201E/D98Y/E187L/E204Q/E69T/G107R/I218V/K202T/L105A/L119W/N104I/Q94N/R106L/R155S/R180L/S101N/S121T/S35A/S48A/V306I/V36M/Y195H/Y91F). Briefly: Competitive peptide binding assay, CIR-B5101. Conditions: HMy2.CIR-B5101 cells, reference Cy5-[…], class from inhibition at 5 and 15 μM, flow cytometry MFI; read-out: Binding affinity with HLA-B5101. The method, then:
as §1

For another assay, the target named is HLA-C1402 (Homo sapiens, UniProt P10321, A176E/A330V/A35S/A97T/C350S/D114A/D33S/L171W/L180R/L218V/M285V/M309V/M331V/P208H/Q277E/Q291P/R121W/R243W/S123F/S297R/S48A/T329A/T363A/V319A). Briefly: Competitive peptide binding assay, CIR-C1402. The following applies: HMy2.CIR-C1402 cells, reference Cy5-[…], class from inhibition at 5 and 15 μM, flow cytometry MFI; read-out: Binding affinity with HLA-C1402. The method, then: as §1

`CC(C)C[C@H](NC(=O)[C@H](Cc1ccccc1)NC(=O)[C@@H](NC(=O)[C@@H](N)C(C)C)C(C)C)C(=O)N[C@@H](Cc1c[nH]cn1)C(=O)N[C@H](C(=O)N[C@H](C(=O)N[C@@H](Cc1ccc(O)cc1)C(=O)N[C@H](C(=O)O)C(C)C)[C@@H](C)O)C(C)C` [Epitope M131] (H-VVFLHVTYV-OH; N-terminus and C-terminus assumed): the IC50 on HLA-C0702 is greater than 15 µM; on HLA-C1202 it was greater than 15 µM; on HLA-C0302, greater than 15 µM; at HLA-C0102, 5 to 15 µM; on HLA-C0304 it was 5 to 15 µM.

As to `CC(C)[C@H](NC(=O)[C@@H](N)Cc1ccccc1)C(=O)N[C@@H](CO)C(=O)N[C@@H](CC(N)=O)C(=O)NCC(=O)N[C@H](C(=O)N[C@@H](Cc1c[nH]cn1)C(=O)N[C@@H](Cc1c[nH]c2ccccc12)C(=O)N[C@@H](Cc1ccccc1)C(=O)O)[C@@H](C)O` [Epitope M68] (H-FVSNGTHWF-OH; N-terminus and C-terminus assumed), the IC50 on HLA-C0702 is greater than 15 µM; at HLA-C0701, greater than 15 µM; on HLA-C0801, greater than 15 µM; at HLA-C0602, greater than 15 µM; at HLA-C1502 it was 5 to 15 µM.

Regarding `CC[C@H](C)[C@H](NC(=O)[C@H](C)NC(=O)[C@H](C)NC(=O)[C@H](CC(N)=O)NC(=O)CNC(=O)[C@H](CC(=O)O)NC(=O)[C@H](CCC(N)=O)NC(=O)[C@H](C)NC(=O)[C@@H](N)Cc1ccccc1)C(=O)O` [Epitope M22] (H-FAQDGNAAI-OH; N-terminus and C-terminus assumed), the IC50 was greater than 15 µM on HLA-C0303; greater than 15 µM at HLA-C0701; less than 5 µM at HLA-C0801; less than 5 µM on HLA-C0302; greater than 15 µM on HLA-C0602; greater than 15 µM on HLA-C0102. Besides, the IC50 at HLA-C0304 fell in the range of 5 to 15 µM.

On to `CSCC[C@H](NC(=O)[C@H](CO)NC(=O)[C@H](CCCNC(=N)N)NC(=O)[C@@H](NC(=O)[C@H](CCCNC(=N)N)NC(=O)[C@H](C)NC(=O)[C@@H](N)Cc1ccccc1)[C@@H](C)O)C(=O)N[C@@H](Cc1c[nH]c2ccccc12)C(=O)N[C@@H](CO)C(=O)N[C@@H](Cc1ccccc1)C(=O)O` [Epitope M71] (H-FARTRSMWSF-OH; N-terminus and C-terminus assumed), for which the IC50 on HLA-C0702 is 5 to 15 µM; at HLA-C0401, greater than 15 µM; at HLA-C0701 it was 5 to 15 µM; on HLA-C0801 it was greater than 15 µM; on HLA-C0302, less than 5 µM; on HLA-C0602, greater than 15 µM.

For the compound `CC[C@H](C)[C@H](N)C(=O)N[C@@H](C)C(=O)N[C@@H](CCSC)C(=O)N[C@@H](C)C(=O)N[C@@H](CS)C(=O)N[C@@H](CC(C)C)C(=O)N[C@H](C(=O)NCC(=O)N[C@@H](CC(C)C)C(=O)O)C(C)C` [Epitope M44] (H-IAMACLVGL-OH; N-terminus and C-terminus assumed), the IC50 was greater than 15 µM on HLA-C0303; greater than 15 µM on HLA-C0702; greater than 15 µM at HLA-C0701; greater than 15 µM at HLA-C0801; less than 5 µM at HLA-C0302; greater than 15 µM at HLA-C0602. For the same compound, the values for the IC50 at HLA-C0102 and at HLA-C0304 were less than 5 µM and greater than 15 µM, respectively.

Consider `CC(C)C[C@H](NC(=O)[C@H](CCC(N)=O)NC(=O)[C@H](CC(=O)O)NC(=O)[C@H](C)NC(=O)[C@@H](N)Cc1c[nH]cn1)C(=O)N[C@H](C(=O)N1CCC[C@H]1C(=O)N[C@H](C(=O)N[C@@H](Cc1c[nH]c2ccccc12)C(=O)O)[C@@H](C)O)[C@@H](C)O` [Epitope Y313] (H-HADQLTPTW-OH; N-terminus and C-terminus assumed), for which the IC50 at HLA-B5201 was 5 to 15 µM; on HLA-B5101, greater than 15 µM.

Take `CC(C)C[C@H](NC(=O)[C@H](CCC(=O)O)NC(=O)[C@H](Cc1ccccc1)NC(=O)[C@H](CO)NC(=O)[C@H](CC(C)C)NC(=O)[C@@H](NC(=O)[C@@H](NC(=O)[C@@H](NC(=O)[C@H](CCCNC(=N)N)NC(=O)[C@@H](N)Cc1ccc(O)cc1)C(C)C)C(C)C)C(C)C)C(=O)O` [Epitope M156] (H-YRVVVLSFEL-OH; N-terminus and C-terminus assumed): the IC50 was greater than 15 µM at HLA-C0303; greater than 15 µM at HLA-C1202; greater than 15 µM at HLA-C1402; 5 to 15 µM on HLA-C0102; greater than 15 µM on HLA-C0304.

Consider `C[C@H](NC(=O)[C@H](CO)NC(=O)[C@H](CO)NC(=O)[C@@H](N)Cc1ccc(O)cc1)C(=O)N[C@@H](CC(N)=O)C(=O)N[C@@H](CC(N)=O)C(=O)N[C@@H](CS)C(=O)N[C@H](C(=O)N[C@@H](Cc1ccccc1)C(=O)O)[C@@H](C)O` [Epitope M64] (H-YSSANNCTF-OH; N-terminus and C-terminus assumed), for which the IC50 is greater than 15 µM on HLA-C0303; greater than 15 µM at HLA-C0702; greater than 15 µM on HLA-C0801; 5 to 15 µM at HLA-C0302; greater than 15 µM on HLA-C0102; less than 5 µM at HLA-C1502.
